Consider two compounds from US9057055B2, “Method of obtaining circulating cancer cell populations” (THE ROYAL INSTITUTION FOR THE ADVANCEMENT OF …, priority 2012, dated 2015).

The test system of the test is CCC cells from a breast cancer patient (ER+, PR−, HER2 (2+)). Put plainly: Drug-sensitivity assay of cultured CCCs (Presto Blue cell growth/viability). It is filed as cell-based, human. As to conditions: cultured CCCs grown in MammoCult media, 10 000 cells per well, 48 hours incubation, Presto Blue fluorescence vs vehicle-treated cells (FIG. 13). As for the experimental part:
One or more frozen aliquot of RoboSep™ CD45-negative cell population (described in Example I and containing about 5×10^6 nucleated cells and about 1 000 to 3 000 CTCs based on Epimet™-positive staining) is cultured in the conditions described in Example II until approximately 600 000 cells are obtained (usually after 6 subculture steps). This amount of cells is sufficient for testing four distinct compounds in triplicate at four different concentrations using a plating density of approximately 5 000 to 10 000 cells/well in 96-well plates. Cells are plated onto ultra-low attachment microtiter plates at 5 000 to 10 000 cells/well in 125 μL of fresh MammoCult™ media in triplicates. Experimental and control samples (no cells added) are incubated for 24 hours at 37° C. and 5% CO2. […] Fluorescence intensity (FI) is determined using a spectrofluorometer (excitation: 530-560 nm; emission: 590 nm). Dose response curves are calculated as a percentage of untreated controls (FI590 of test agent dilution/FI590 of untreated control)×100 and the LD50 are calculated.
Cells were collected by aphaeresis from a breast cancer patient (ER+, PR−, HER2 (2+)) diagnosed with invasive lobular carcinoma and metastatic spread to bone, liver and the mediastinum. […] Cell growth/viability was assessed using Presto Blue®(Invitrogen). […] Fluorescence values use the excitation and emission peaks for resorufin. […]

As to `COc1cccc2c1C(=O)c1c(O)c3c(c(O)c1C2=O)C[C@@](O)(C(=O)CO)C[C@@H]3O[C@H]1C[C@H](N)[C@@H](O)[C@H](C)O1` [epirubicin], under “Homo sapiens, low attachment 96-well plate, read-out: IC50 of inhibition of cell growth”, the IC50 was about 1000 nM.

`CC(=O)O[C@H]1C(=O)[C@@]2(C)[C@H]([C@H](OC(=O)c3ccccc3)[C@]3(O)C[C@H](OC(=O)[C@H](O)[C@@H](NC(=O)c4ccccc4)c4ccccc4)C(C)=C1C3(C)C)[C@]1(OC(C)=O)CO[C@@H]1C[C@@H]2O` [taxol, paclitaxel]: the “effect on cell growth” value (increasing concentrations) was “no effect”.

By IC50 is commonly meant the concentration at which inhibition is half-maximal.
